{"source": "patent US6843979B2", "about": "“4-haloethenylphenyl tropane:serotonin transporter imaging agents” (Emory University, priority 1999, dated 2005)", "key": {"rat brain SERT": {"molecular_target": "rat brain SERT (Rattus norvegicus, UniProt P31652)", "sequence (P31652 whole entry)": "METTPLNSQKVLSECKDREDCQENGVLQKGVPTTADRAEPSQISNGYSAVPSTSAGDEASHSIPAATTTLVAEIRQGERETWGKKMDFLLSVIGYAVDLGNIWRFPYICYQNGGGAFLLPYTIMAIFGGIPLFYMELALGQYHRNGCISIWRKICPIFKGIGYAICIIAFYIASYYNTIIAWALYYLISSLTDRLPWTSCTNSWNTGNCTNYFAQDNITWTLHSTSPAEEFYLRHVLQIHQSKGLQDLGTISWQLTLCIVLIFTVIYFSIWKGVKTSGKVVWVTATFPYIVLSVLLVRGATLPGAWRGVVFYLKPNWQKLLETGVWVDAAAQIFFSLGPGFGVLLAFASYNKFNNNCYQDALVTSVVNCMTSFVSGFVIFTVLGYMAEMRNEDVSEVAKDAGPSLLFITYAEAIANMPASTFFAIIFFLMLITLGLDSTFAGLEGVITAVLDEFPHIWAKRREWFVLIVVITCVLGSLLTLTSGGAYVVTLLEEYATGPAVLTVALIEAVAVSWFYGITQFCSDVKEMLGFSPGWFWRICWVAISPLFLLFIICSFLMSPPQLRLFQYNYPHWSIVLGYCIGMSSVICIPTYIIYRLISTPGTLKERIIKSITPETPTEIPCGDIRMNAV", "test": "Regional brain uptake of [123I]ZIENT in rats with blocking agents"}, "[1]": {"test": "Tissue uptake of [123I]ZIENT in rats", "settings": "rat"}, "SERT": {"system": "SERT", "test": "SPECT imaging in baboon", "format": "in vivo", "settings": "anesthetized baboon, 300-360 min", "method": "FIG. 7 is a graph showing time activity curves of [^123I]ZIENT in a baboon.\nThe baboon was injected with 10 mCi of [^123I]ZIENT and serial images (128×128×64 matrix: pixel size=1.67×1.67 mm, slice, thickness=1.67 mm, voxel volume=4.66 mm^3) were acquired at 159 keV, in step and shoot mode at 10 min each for a total of 360 to 390 min and 32 to 35 acquisitions per experiment. Images were reconstructed using a ramp and a Butterworth filter (cutoff=0.65 cm-power factor=10). To identify brain regions, MRI scans of 1.5 mm contiguous slices were obtained with a 1.5 Tesla GE Signa device. Axial images were acquired using a spoiled GRASS (gradient recall acquisition in the steady state) sequence with TR=25 ms, TE=5 ms, NEX=2, matrix=256×192, field of view=16 cm. […] The uptake ratio of brainstem/cerebellum was 3.0:1 at 300-360 min."}, "SERT sites": {"molecular_target": "SERT sites (Macaca mulatta, UniProt Q9MYX0)", "sequence (Q9MYX0 whole entry)": "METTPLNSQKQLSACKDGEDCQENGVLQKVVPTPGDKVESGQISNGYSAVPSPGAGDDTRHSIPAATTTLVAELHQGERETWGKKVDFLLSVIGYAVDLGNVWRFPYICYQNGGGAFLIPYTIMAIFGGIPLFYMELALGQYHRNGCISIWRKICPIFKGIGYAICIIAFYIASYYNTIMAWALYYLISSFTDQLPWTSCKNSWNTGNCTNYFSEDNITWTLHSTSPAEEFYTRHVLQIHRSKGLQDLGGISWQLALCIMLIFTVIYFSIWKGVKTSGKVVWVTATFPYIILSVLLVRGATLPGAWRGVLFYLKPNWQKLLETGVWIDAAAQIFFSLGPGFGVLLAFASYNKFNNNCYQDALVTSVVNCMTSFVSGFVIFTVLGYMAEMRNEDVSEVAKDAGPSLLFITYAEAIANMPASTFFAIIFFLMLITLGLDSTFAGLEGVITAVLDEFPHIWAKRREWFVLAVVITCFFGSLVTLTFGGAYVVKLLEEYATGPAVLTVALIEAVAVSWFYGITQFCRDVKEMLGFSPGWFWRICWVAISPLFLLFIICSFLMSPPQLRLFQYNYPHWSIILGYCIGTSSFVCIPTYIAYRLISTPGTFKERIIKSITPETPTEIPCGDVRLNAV", "test": "SPECT imaging and fluvoxamine chase study in rhesus monkey", "settings": "for Displacement of tracer by fluvoxamine (SPECT): fluvoxamine 5 mg i.v., midbrain / brainstem; for Brain uptake by SPECT: midbrain by 54 min, brainstem at 80-110 min", "from_the_text": "SPECT images were reconstructed as transaxial slices (3.2 mm) and attenuation corrected."}, "[2]": {"settings": "5 mg/kg i.v. 15 min prior, 60 min"}, "[3]": {"settings": "60 min, Fluvoxamine 5 mg/kg i.v. 15 min prior"}, "[4]": {"settings": "60 min, GBR 12909 5 mg/kg i.v. 15 min prior"}, "[5]": {"settings": "60 min after i.v., listed as [^123]ZIENT"}}, "data": [{"compound": "COC(=O)C1C2CCC(CC1c1ccc(C=C[123I])cc1)N2", "note": "(stereo not shown) [[^123I]ZIENT]", "values": [{"measurement": "Effect of GBR 12909 (DAT ligand) on tracer uptake in striatum", "setting": "rat brain SERT; [2]", "value": "did not significantly block"}, {"measurement": "Effect of NET blocking agent (reboxetine) on regional brain uptake of tracer", "setting": "rat brain SERT; [2]", "value": "little effect"}, {"measurement": "Effect of fluvoxamine (SERT ligand) on tracer uptake in hypothalamus and striatum", "setting": "rat brain SERT; [2]", "value": "significantly blocked"}, {"measurement": "Hypothal/(CB) ratio", "setting": "rat brain SERT; [3]", "value": 1.3}, {"measurement": "Regional uptake, Brain", "setting": "rat brain SERT; [3]", "value": "0.27 (0.24 0-0.30) % dose/g"}, {"measurement": "Regional uptake, Cerebellum", "setting": "rat brain SERT; [3]", "value": "0.18 (0.16-0.20) % dose/g"}, {"measurement": "Regional uptake, Frontal Cortex", "setting": "rat brain SERT; [3]", "value": "0.26 (0.23-0.29) % dose/g"}, {"measurement": "Regional uptake, Hypothalamus", "setting": "rat brain SERT; [3]", "value": "0.23 (0.18-0.27) % dose/g"}, {"measurement": "Regional uptake, Striatum", "setting": "rat brain SERT; [3]", "value": "0.28 (0.24-0.32) % dose/g"}, {"measurement": "Striatum/(CB) ratio", "setting": "rat brain SERT; [3]", "value": 1.6}, {"measurement": "Hypothal/(CB) ratio", "setting": "rat brain SERT; [4]", "value": 1.8}, {"measurement": "Regional uptake, Brain", "setting": "rat brain SERT; [4]", "value": "0.39 (0.37-0.42) % dose/g"}, {"measurement": "Regional uptake, Cerebellum", "setting": "rat brain SERT; [4]", "value": "0.21 (0.18-0.26) % dose/g"}, {"measurement": "Regional uptake, Frontal Cortex", "setting": "rat brain SERT; [4]", "value": "0.43 (0.38-0.47) % dose/g"}, {"measurement": "Regional uptake, Hypothalamus", "setting": "rat brain SERT; [4]", "value": "0.38 (0.34-0.41) % dose/g"}, {"measurement": "Regional uptake, Striatum", "setting": "rat brain SERT; [4]", "value": "0.40 (0.37-0.42) % dose/g"}, {"measurement": "Striatum/(CB) ratio", "setting": "rat brain SERT; [4]", "value": 1.9}, {"measurement": "Hypothal/(CB) ratio", "setting": "rat brain SERT; 60 min after i.v.", "value": 2.7}, {"measurement": "Regional uptake, Brain", "setting": "rat brain SERT; 60 min after i.v.", "value": "0.61 (0.56-0.63) % dose/g"}, {"measurement": "Regional uptake, Cerebellum", "setting": "rat brain SERT; 60 min after i.v.", "value": "0.29 (0.28-0.31) % dose/g"}, {"measurement": "Regional uptake, Frontal Cortex", "setting": "rat brain SERT; 60 min after i.v.", "value": "0.70 (0.65-0.78) % dose/g"}, {"measurement": "Regional uptake, Hypothalamus", "setting": "rat brain SERT; 60 min after i.v.", "value": 0.7, "unit": "% dose/g"}, {"measurement": "Regional uptake, Striatum", "setting": "rat brain SERT; 60 min after i.v.", "value": "0.60 (0.54-0.63) % dose/g"}, {"measurement": "Striatum/(CB) ratio", "setting": "rat brain SERT; 60 min after i.v.", "value": 2.1}, {"measurement": "Hypothal/(CB) ratio", "setting": "rat brain SERT; 60 min after i.v., listed as [^123I] ZIENT", "value": 3}, {"measurement": "Hypothal/(CB) ratio", "setting": "rat brain SERT; [5]", "value": 2.7}, {"measurement": "Regional uptake, Hypothalamus", "setting": "rat brain SERT; [5]", "value": "0.77 (0.69-0.83) % dose/g"}, {"measurement": "Hypothal/(CB) ratio", "setting": "rat brain SERT; 120 min after i.v.", "value": 4.4}, {"measurement": "Regional uptake, Brain", "setting": "rat brain SERT; 120 min after i.v.", "value": "0.40 (0.32-0.50) % dose/g"}, {"measurement": "Regional uptake, Cerebellum", "setting": "rat brain SERT; 120 min after i.v.", "value": "0.12 (0.11-0.28) % dose/g"}, {"measurement": "Regional uptake, Frontal Cortex", "setting": "rat brain SERT; 120 min after i.v.", "value": "0.48 (0.42-0.53) % dose/g"}, {"measurement": "Regional uptake, Hypothalamus", "setting": "rat brain SERT; 120 min after i.v.", "value": "0.53 (0.44-0.60) % dose/g"}, {"measurement": "Regional uptake, Striatum", "setting": "rat brain SERT; 120 min after i.v.", "value": "0.46 (0.37-0.55) % dose/g"}, {"measurement": "Striatum/(CB) ratio", "setting": "rat brain SERT; 120 min after i.v.", "value": 3.8}, {"measurement": "Hypothal/(CB) ratio", "setting": "rat brain SERT; 120 min after i.v., listed as [^123I] ZIENT", "value": 5}, {"measurement": "Hypothal/(CB) ratio", "setting": "rat brain SERT; 120 min after i.v., listed as [^123]ZIENT", "value": 4.4}, {"measurement": "Prefrontal cortex to cerebellum ratio", "setting": "rat brain SERT; 120 min post injection", "value": 2.9}, {"measurement": "Clearance from the hypothalamus", "setting": "rat brain SERT; at 120 min compared to 60 min post injection", "value": 30, "unit": "%"}, {"measurement": "Tissue uptake, Blood", "setting": "[1]; 5 min after i.v.", "value": "0.64 (0.52-0.86) percent dose per gram"}, {"measurement": "Tissue uptake, Heart", "setting": "[1]; 5 min after i.v.", "value": "2.41 (2.36-2.47) percent dose per gram"}, {"measurement": "Tissue uptake, Kidney", "setting": "[1]; 5 min after i.v.", "value": "2.35 (2.16-2.67) percent dose per gram"}, {"measurement": "Tissue uptake, Liver", "setting": "[1]; 5 min after i.v.", "value": "0.99 (0.73-1.33) percent dose per gram"}, {"measurement": "Tissue uptake, Lung", "setting": "[1]; 5 min after i.v.", "value": "9.71 (7.9-11.8) percent dose per gram"}, {"measurement": "Tissue uptake, Muscle", "setting": "[1]; 5 min after i.v.", "value": "0.30 (0.15-0.44) percent dose per gram"}, {"measurement": "Tissue uptake, Spleen", "setting": "[1]; 5 min after i.v.", "value": "3.79 (3.28-4.67) percent dose per gram"}, {"measurement": "Tissue uptake, Testis", "setting": "[1]; 5 min after i.v.", "value": "0.22 (0.19-0.27) percent dose per gram"}, {"measurement": "Tissue uptake, Thyroid", "setting": "[1]; 5 min after i.v.", "value": "0.11 (0.08-0.12) percent dose per gram"}, {"measurement": "Tissue uptake, Blood", "setting": "[1]; 30 min after i.v.", "value": "0.46 (0.43-0.49) percent dose per gram"}, {"measurement": "Tissue uptake, Heart", "setting": "[1]; 30 min after i.v.", "value": "0.52 (0.48-0.55) percent dose per gram"}, {"measurement": "Tissue uptake, Kidney", "setting": "[1]; 30 min after i.v.", "value": "0.66 (0.64-0.70) percent dose per gram"}, {"measurement": "Tissue uptake, Liver", "setting": "[1]; 30 min after i.v.", "value": "0.43 (0.38-0.51) percent dose per gram"}, {"measurement": "Tissue uptake, Lung", "setting": "[1]; 30 min after i.v.", "value": "1.48 (1.35-1.66) percent dose per gram"}, {"measurement": "Tissue uptake, Muscle", "setting": "[1]; 30 min after i.v.", "value": "0.29 (0.25-0.32) percent dose per gram"}, {"measurement": "Tissue uptake, Spleen", "setting": "[1]; 30 min after i.v.", "value": "1.24 (1.03-1.50) percent dose per gram"}, {"measurement": "Tissue uptake, Testis", "setting": "[1]; 30 min after i.v.", "value": "0.36 (0.30-0.47) percent dose per gram"}, {"measurement": "Tissue uptake, Thyroid", "setting": "[1]; 30 min after i.v.", "value": "0.23 (0.19-0.29) percent dose per gram"}, {"measurement": "Tissue uptake, Blood", "setting": "[1]; 60 min after i.v.", "value": "0.39 (0.23-0.42) percent dose per gram"}, {"measurement": "Tissue uptake, Heart", "setting": "[1]; 60 min after i.v.", "value": "0.36 (0.15-0.40) percent dose per gram"}, {"measurement": "Tissue uptake, Kidney", "setting": "[1]; 60 min after i.v.", "value": "0.44 (0.29-0.50) percent dose per gram"}, {"measurement": "Tissue uptake, Liver", "setting": "[1]; 60 min after i.v.", "value": "0.28 (0.11-0.30) percent dose per gram"}, {"measurement": "Tissue uptake, Lung", "setting": "[1]; 60 min after i.v.", "value": "1.27 (0.62-1.44) percent dose per gram"}, {"measurement": "Tissue uptake, Muscle", "setting": "[1]; 60 min after i.v.", "value": "0.20 (0.11-0.22) percent dose per gram"}, {"measurement": "Tissue uptake, Spleen", "setting": "[1]; 60 min after i.v.", "value": "0.82 (0.50-0.94) percent dose per gram"}, {"measurement": "Tissue uptake, Testis", "setting": "[1]; 60 min after i.v.", "value": "0.29 (0.26-0.34) percent dose per gram"}, {"measurement": "Tissue uptake, Thyroid", "setting": "[1]; 60 min after i.v.", "value": "0.33 (0.17-0.37) percent dose per gram"}, {"measurement": "Tissue uptake, Blood", "setting": "[1]; 120 min after i.v.", "value": "0.33 (0.31-0.36) percent dose per gram"}, {"measurement": "Tissue uptake, Heart", "setting": "[1]; 120 min after i.v.", "value": "0.20 (0.18-0.24) percent dose per gram"}, {"measurement": "Tissue uptake, Kidney", "setting": "[1]; 120 min after i.v.", "value": "0.32 (0.29-0.35) percent dose per gram"}, {"measurement": "Tissue uptake, Liver", "setting": "[1]; 120 min after i.v.", "value": "0.29 (0.23-0.41) percent dose per gram"}, {"measurement": "Tissue uptake, Lung", "setting": "[1]; 120 min after i.v.", "value": "0.72 (0.61-0.78) percent dose per gram"}, {"measurement": "Tissue uptake, Muscle", "setting": "[1]; 120 min after i.v.", "value": "0.16 (0.14-0.18) percent dose per gram"}, {"measurement": "Tissue uptake, Spleen", "setting": "[1]; 120 min after i.v.", "value": "0.51 (0.44-0.55) percent dose per gram"}, {"measurement": "Tissue uptake, Testis", "setting": "[1]; 120 min after i.v.", "value": "0.30 (0.26-0.33) percent dose per gram"}, {"measurement": "Tissue uptake, Thyroid", "setting": "[1]; 120 min after i.v.", "value": "1.61 (0.82-2.31) percent dose per gram"}, {"measurement": "Uptake ratio of brainstem/cerebellum", "setting": "SERT", "value": 3.0}, {"measurement": "Displacement of tracer by fluvoxamine (SPECT)", "setting": "SERT sites", "value": "significant reduction of activity"}, {"measurement": "Displacement of tracer by fluvoxamine (SPECT)", "setting": "SERT sites; listed as [^123I] ZIENT", "value": "significantly displaced"}, {"measurement": "Brain uptake by SPECT", "setting": "SERT sites", "value": "regions of highest uptake"}, {"measurement": "Brain uptake by SPECT", "setting": "SERT sites; listed as [^123I] ZIENT", "value": "high"}]}]}
